18 compounds from patent US9850256B2, “Antibacterial basic biaromatic derivatives with aminoalkoxy substitution” (priority 2014, dated 2017) can be followed below.

What all share (assay): Bacterial growth minimal inhibitory concentration (microdilution, cation-adjusted Mueller-Hinton Broth)
The subject of one test is S. aureus A798. Format: cell-based, Staphylococcus aureus. The following applies: multiply-resistant strain (methicillin- and quinolone-resistant); for MIC: Staphylococcus aureus, A798. A digest of the protocol: (§1)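 Broth microdilution in cation-adjusted Mueller-Hinton Broth per CLSI M7-A7; MICs in mg/L. S. aureus A798 is methicillin- and quinolone-resistant, K. pneumoniae T6474 penicillin-, cephalosporin- and quinolone-resistant; E. coli ATCC25922 and P. aeruginosa ATCC 27853 are quinolone-sensitive.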

A further test has as its system E. coli ATCC25922. In kind it is cell-based. Conditions: quinolone-sensitive strain; for MIC: Escherichia coli, ATCC25922. An outline of the steps:
as §1

For a further test, the system named is K. pneumoniae T6474. Format: cell-based, Klebsiella pneumoniae. Conditions: multiply-resistant strain (penicillin-, cephalosporin- and quinolone-resistant); for MIC: Klebsiella pneumoniae, T6474. An outline of the steps:
as §1

In another test the test system is P. aeruginosa ATCC 27853. In kind it is cell-based, Pseudomonas aeruginosa. Conditions: quinolone-sensitive strain; for MIC: Pseudomonas aeruginosa, ATCC27853. An outline of the steps:
as §1

Molecules are shown by their SMILES. Converted amounts (≈) assume the structure as drawn.

Broadly, the MIC is the smallest concentration in the dilution series that meets the test's criterion for growth inhibition.

As for `CN1CC[C@H](Oc2cccc(-c3ccnc(CNCC[C@H]4CN(c5ccc6c(n5)NC(=O)CO6)C(=O)O4)c3)n2)C1` [Example $128, 6-[(S)-5-(2-{[6-((S)-1-methyl-pyrrolidin-3-yloxy)-[2,4′]bipyridinyl-2′-ylmethyl]-amino}-ethyl)-2-oxo-oxazolidin-3-yl]-4H-pyrido[3,2-b][1,4]oxazin-3-one], the MIC against S. aureus A798 was 0.25 µg/mL (≈ 0.458 µM); against E. coli ATCC25922, 0.5 µg/mL (≈ 0.916 µM); in the test with K. pneumoniae T6474 it was 1 µg/mL (≈ 1.83 µM); in the test with P. aeruginosa ATCC 27853, 1 µg/mL (≈ 1.83 µM).
With `C[C@@H]1CNC[C@H]1Oc1cccc(-c2cccc(CNCC[C@H]3CN(c4ccc5c(n4)NC(=O)CO5)C(=O)O3)c2)n1` (relative stereo) [Example $173, 6-[(S)-5-(2-{3-[6-((3S*,4R*)-4-methyl-pyrrolidin-3-yloxy)-pyridin-2-yl]-benzylamino}-ethyl)-2-oxo-oxazolidin-3-yl]-4H-pyrido[3,2-b][1,4]oxazin-3-one], the MIC in the test on S. aureus A798 was determined as 0.5 µg/mL (≈ 0.918 µM); against E. coli ATCC25922 it was 1 µg/mL (≈ 1.84 µM); in the test with K. pneumoniae T6474, 2 µg/mL (≈ 3.67 µM); with P. aeruginosa ATCC 27853, 1 µg/mL (≈ 1.84 µM).
Turning to `O=C1COc2ccc(N3C[C@H](CCNCc4cccc(-c5cccc(OCC6CNCCO6)n5)c4)OC3=O)nc2N1.O=CO` (mixture of isomers) [Example $109, 6-[(S)-5-(2-{3-[6-((RS)-1-morpholin-2-ylmethoxy)-pyridin-2-yl]-benzylamino}-ethyl)-2-oxo-oxazolidin-3-yl]-4H-pyrido[3,2-b][1,4]oxazin-3-one formate], the minimum inhibitory concentration (MIC) stood at 0.5 µg/mL in the test with S. aureus A798, 1 µg/mL with E. coli ATCC25922, 2 µg/mL against K. pneumoniae T6474 and 1 µg/mL against P. aeruginosa ATCC 27853.
Consider `NCCOc1nccc(-c2cccc(CNCC[C@H]3CN(c4ccc5c(n4)NC(=O)CO5)C(=O)O3)c2)n1` [Example $160, 6-[(S)-5-(2-{3-[2-(2-amino-ethoxy)-pyrimidin-4-yl]-benzylamino}-ethyl)-2-oxo-oxazolidin-3-yl]-4H-pyrido[3,2-b][1,4]oxazin-3-one], for which the MIC against S. aureus A798 is 4 µg/mL (≈ 7.91 µM); against E. coli ATCC25922, 2 µg/mL (≈ 3.96 µM); with K. pneumoniae T6474, 8 µg/mL (≈ 15.8 µM); in the test on P. aeruginosa ATCC 27853, 1 µg/mL (≈ 1.98 µM).
In the same order, the values of `O=C1COc2ccc(N3C[C@H](CCNCc4cccc(-c5cccc(O[C@H]6CCNC6)n5)c4)OC3=O)nc2N1` [Example $119, 6-[(S)-2-oxo-5-(2-{3-[6-((S)-pyrrolidin-3-yloxy)-pyridin-2-yl]-benzylamino}-ethyl)-oxazolidin-3-yl]-4H-pyrido[3,2-b][1,4]oxazin-3-one] are 0.5 µg/mL (≈ 0.942 µM), 1 µg/mL (≈ 1.88 µM), 1 µg/mL (≈ 1.88 µM) and 0.5 µg/mL (≈ 0.942 µM).
For `NCCOc1cncc(-c2ccnc(CNCC[C@H]3CN(c4ccc5c(n4)NC(=O)CO5)C(=O)O3)c2)c1` [Example $159, 6-[(S)-5-(2-{[5-(2-amino-ethoxy)-[3,4′]bipyridinyl-2′-ylmethyl]-amino}-ethyl)-2-oxo-oxazolidin-3-yl]-4H-pyrido[3,2-b][1,4]oxazin-3-one] the same measures were 8 µg/mL (≈ 15.8 µM), 16 µg/mL (≈ 31.6 µM), 8 µg/mL (≈ 15.8 µM) and 4 µg/mL (≈ 7.91 µM).
For `NCCOc1cccc(-c2ccnc(CNCC[C@H]3CN(c4ccc5c(n4)NC(=O)CO5)C(=O)O3)n2)n1` [Example $165, 6-{(S)-5-[2-({4-[6-(2-amino-ethoxy)-pyridin-2-yl]-pyrimidin-2-ylmethyl}-amino)-ethyl]-2-oxo-oxazolidin-3-yl}-4H-pyrido[3,2-b][1,4]oxazin-3-one] the same measures were 8 µg/mL (≈ 15.8 µM), 4 µg/mL (≈ 7.9 µM), 4 µg/mL (≈ 7.9 µM) and 2 µg/mL (≈ 3.95 µM).
With `O=C1COc2ccc(N3C[C@H](CCNCc4cccc(-c5cccc(OC[C@@H]6CCN6)n5)c4)OC3=O)nc2N1.O=CO` [Example $108, 6-[(S)-5-(2-{3-[6-((S)-1-azetidin-2-ylmethoxy)-pyridin-2-yl]-benzylamino}-ethyl)-2-oxo-oxazolidin-3-yl]-4H-pyrido[3,2-b][1,4]oxazin-3-oneformate], the “MIC for S. aureus A798” value in the test on S. aureus A798 was 2 µg/mL. Further, the “MIC for E. coli ATCC25922” value in the test with E. coli ATCC25922 was determined as 1 µg/mL. For the same compound, the “MIC for K. pneumoniae T6474” value in the test with K. pneumoniae T6474 is 2 µg/mL. Further, the “MIC for P. aeruginosa ATCC 27853” value against P. aeruginosa ATCC 27853 is 0.5 µg/mL.
On to `O=C1COc2ccc(N3C[C@H](CCNCc4cccc(-c5cccc(OC[C@@H]6CCNC6)n5)c4)OC3=O)nc2N1` [Example $143, 6-[(S)-2-oxo-5-(2-{3-[6-((R)-1-pyrrolidin-3-ylmethoxy)-pyridin-2-yl]-benzylamino}-ethyl)-oxazolidin-3-yl]-4H-pyrido[3,2-b][1,4]oxazin-3-one], for which the minimum inhibitory concentration (MIC) in the test with S. aureus A798 worked out at 2 µg/mL (≈ 3.67 µM); in the test with E. coli ATCC25922, 2 µg/mL (≈ 3.67 µM); in the test on K. pneumoniae T6474, 4 µg/mL (≈ 7.34 µM); in the test with P. aeruginosa ATCC 27853 it was 1 µg/mL (≈ 1.84 µM).
For `CN1CC[C@H](Oc2cncc(-c3ccnc(CNCC[C@H]4CN(c5ccc6c(n5)NC(=O)CO6)C(=O)O4)c3)n2)C1` [Example $148, 6-{(S)-5-[2-({4-[6-((S)-1-methyl-pyrrolidin-3-yloxy)-pyrazin-2-yl]-pyridin-2-ylmethyl}-amino)-ethyl]-2-oxo-oxazolidin-3-yl}-4H-pyrido[3,2-b][1,4]oxazin-3-one], the minimal inhibitory concentration (MIC) with S. aureus A798, against E. coli ATCC25922, with K. pneumoniae T6474 and in the test with P. aeruginosa ATCC 27853 was 1 µg/mL (≈ 1.83 µM) throughout.
For the compound `CN1CC(Oc2cccc(-c3cccc(CNCC[C@H]4CN(c5ccc6c(n5)NC(=O)CO6)C(=O)O4)c3)n2)C1` [Example $122, 6-[(S)-5-(2-{3-[6-(1-methyl-azetidin-3-yloxy)-pyridin-2-yl]-benzylamino}-ethyl)-2-oxo-oxazolidin-3-yl]-4H-pyrido[3,2-b][1,4]oxazin-3-one], the MIC is 0.25 µg/mL (≈ 0.471 µM) in the test with S. aureus A798, 0.25 µg/mL (≈ 0.471 µM) against E. coli ATCC25922, 0.5 µg/mL (≈ 0.942 µM) against K. pneumoniae T6474 and 0.5 µg/mL (≈ 0.942 µM) in the test with P. aeruginosa ATCC 27853.
For `CN1CC[C@@H](Oc2cccc(-c3cccc(CNCC[C@@H]4CN(c5ccc6c(c5)NC(=O)CS6)C(=O)O4)c3)n2)C1` [Example $169, 6-[(R)-5-(2-{3-[6-((R)-1-methyl-pyrrolidin-3-yloxy)-pyridin-2-yl]-benzylamino}-ethyl)-2-oxo-oxazolidin-3-yl]-4H-benzo[1,4]thiazin-3-one], the minimum inhibitory concentration (MIC) is 0.25 µg/mL (≈ 0.447 µM) in the test on S. aureus A798, 1 µg/mL (≈ 1.79 µM) against E. coli ATCC25922, 2 µg/mL (≈ 3.57 µM) in the test with K. pneumoniae T6474 and 2 µg/mL (≈ 3.57 µM) in the test on P. aeruginosa ATCC 27853.
Turning to `O=C1COc2ccc(N3C[C@H](CCNCc4cccc(-c5cccc(OCCN6CCOCC6)n5)c4)OC3=O)nc2N1` [Example 23, 6-[(S)-5-(2-{3-[6-(2-morpholin-4-yl-ethoxy)-pyridin-2-yl]-benzylamino}-ethyl)-2-oxo-oxazolidin-3-yl]-4H-pyrido[3,2-b][1,4]oxazin-3-one], the MIC in the test with S. aureus A798 came to 0.125 µg/mL (≈ 0.218 µM); against E. coli ATCC25922, 4 µg/mL (≈ 6.96 µM); against K. pneumoniae T6474, 8 µg/mL (≈ 13.9 µM); with P. aeruginosa ATCC 27853, 8 µg/mL (≈ 13.9 µM).
As to `O=C1COc2ccc(N3C[C@H](CCNCc4cccc(-c5cccc(OC6CCCNC6)n5)c4)OC3=O)nc2N1.O=CO` (mixture of isomers) [Example $111, 6-[(S)-2-oxo-5-(2-{3-[6-((RS)-piperidin-3-yloxy)-pyridin-2-yl]-benzylamino}-ethyl)-oxazolidin-3-yl]-4H-pyrido[3,2-b][1,4]oxazin-3-one formate], the MIC in the test on S. aureus A798 came to 1 µg/mL; in the test with E. coli ATCC25922 it was 2 µg/mL; in the test with K. pneumoniae T6474, 2 µg/mL; with P. aeruginosa ATCC 27853, 2 µg/mL.
Take `O=C1COc2ccc(N3C[C@H](CCNCc4cccc(-c5cccc(OC[C@H]6CCNC6)n5)c4)OC3=O)nc2N1` [Example $144, 6-[(S)-2-oxo-5-(2-{3-[6-((S)-1-pyrrolidin-3-ylmethoxy)-pyridin-2-yl]-benzylamino}-ethyl)-oxazolidin-3-yl]-4H-pyrido[3,2-b][1,4]oxazin-3-one]: the minimal inhibitory concentration (MIC) with S. aureus A798 is 2 µg/mL (≈ 3.67 µM); with E. coli ATCC25922, 4 µg/mL (≈ 7.34 µM); against K. pneumoniae T6474 it was 4 µg/mL (≈ 7.34 µM); against P. aeruginosa ATCC 27853 it was 1 µg/mL (≈ 1.84 µM).
As to `C[C@@H]1[C@H](Oc2cccc(-c3cccc(CNCC[C@H]4CN(c5ccc6c(n5)NC(=O)CO6)C(=O)O4)c3)n2)CN1C` (mixture of isomers) [Example $178, 6-[(S)-5-(2-{3-[6-((2RS,3RS)-1,2-dimethyl-azetidin-3-yloxy)-pyridin-2-yl]-benzylamino}-ethyl)-2-oxo-oxazolidin-3-yl]-4H-pyrido[3,2-b][1,4]oxazin-3-one], the minimal inhibitory concentration (MIC) with S. aureus A798 amounted to 0.125 µg/mL; with E. coli ATCC25922, 0.5 µg/mL; in the test on K. pneumoniae T6474, 1 µg/mL; in the test with P. aeruginosa ATCC 27853, 1 µg/mL.
Take `NCCOc1cccc(-c2ccnc(CNCC[C@H]3CN(c4ccc5c(n4)NC(=O)CO5)C(=O)O3)c2)n1.O=CO` [Example 16, 6-[(S)-5-(2-{[6-(2-amino-ethoxy)-[2,4′]bipyridinyl-2′-ylmethyl]-amino}-ethyl)-2-oxo-oxazolidin-3-yl]-4H-pyrido[3,2-b][1,4]oxazin-3-one formate]: the MIC was 0.5 µg/mL against S. aureus A798, 2 µg/mL against E. coli ATCC25922, 4 µg/mL against K. pneumoniae T6474 and 0.5 µg/mL in the test on P. aeruginosa ATCC 27853.
Consider `NC1(COc2cccc(-c3cccc(CNCC[C@H]4CN(c5ccc6c(n5)NC(=O)CO6)C(=O)O4)c3)c2)CC1` [Example 14, 6-[(S)-5-(2-{[3′-(1-amino-cyclopropylmethoxy)-biphenyl-3-ylmethyl]-amino}-ethyl)-2-oxo-oxazolidin-3-yl]-4H-pyrido[3,2-b][1,4]oxazin-3-one], for which the MIC was determined as 1 µg/mL (≈ 1.89 µM) in the test on S. aureus A798, 2 µg/mL (≈ 3.78 µM) with E. coli ATCC25922, 2 µg/mL (≈ 3.78 µM) against K. pneumoniae T6474 and 8 µg/mL (≈ 15.1 µM) with P. aeruginosa ATCC 27853.
